# Reference: US9896697B2, “Defensin-encoding nucleic acid molecules derived from Nicotiana alata, uses therefor and transgenic plants comprising same” (HEXIMA LIMITED, priority 2001, dated 2018)
# Key:
# [1] = tested on: Fusarium oxysporum (f. sp. dianthi, Race 2); test: Fungal growth inhibition assay, 96-well microtitre plate, absorbance at 595 nm; format: cell-based; conditions: 20 μg/mL purified protein; FIG. 12A
# Text: (§1) The 96-well microtitre plate assay of Broekaert et al. (EMS Microbiology Letters 69:55-60, 1990) was used to test the effect of the purified NaPdf1 protein on the growth of Botrytis cinerea (isolated from rosemary, Brunswick, Victoria), Fusarium oxysporum (f. sp. dianthi, Race 2; isolated from carnation by Florigene Limited, Collingwood, Victoria) and Fusarium oxysporum (f. sp. vasinfectum, isolate VCG 01111 from cotton; provided by the Department of Primary Industries, Queensland). Fungal spores were isolated from sporulating cultures growing on half strength potato dextrose agar (PDA, Difco) or gamma-irradiated carnation leaves in water agar by the addition of sterile water and the use of a spreader. The suspension was filtered through two layers of autoclaved muslin and the spore concentration in the filtrate determined using a haemocytometer. The spores were used directly or after storage in sterile 20% v/v glycerol solution at −20° C.
# (§2) Antifungal assays were performed in 96-well flat-bottomed microtitre plates (Greiner) under aseptic conditions. The spore concentration was adjusted to about 2×10^4 spores/mL in PDB and 80 μL of this suspension was added to each well to which 20 μL of filter sterilised (0.22 μm syringe filter, Millipore) test protein (10, 50 or 100 μg/mL) or water was added. The purity and concentration of each protein was confirmed before use by RP-HPLC analysis. Sterile water and ovalbumin (Sigma) were added to other wells as negative controls, and a mixture of the antifungal proteins α- and β-purothionin (Sigma) was used as a positive control. The plates were shaken on an orbital shaker for a few seconds to mix the spores and the test proteins. The plates were allowed to stand for 30 min to allow the spores to sediment before the optical density of the plates were determined using a Spectra Max Pro 250 microplate reader (Molecular Devices) at 595 nm absorbance. […] An increase in absorbance relative to the initial reading was correlated with the growth of fungal hyphae and this was plotted against time. […]
# Botrytis cinerea = test: as above; format: cell-based; conditions: 20 μg/mL purified protein; FIG. 11
# Text: as §1, §2
# [2] = tested on: Fusarium oxysporum (f. sp. vasinfectum, isolate VCG 01111); test: as above; format: cell-based; conditions: 20 μg/mL purified protein; FIGS. 12B and 12C
# Text: as §1, §2
# H. armigera larvae = test: Insect feeding trial with artificial cotton leaf diet; format: in vivo; conditions: 0.3% (w/v) test protein in artificial diet; casein control; FIG. 16
# Text: Table 2 Artificial diet ingredients used in the feeding trial of H. armigera [table] Helicoverpa punctigera larvae came from a colony collected in Victoria, Australia and maintained in culture at La Trobe University, Melbourne and H. armigera were obtained from a colonies maintained at La Trobe University, Melbourne or the Australian Cotton Research Institute, at the Entomology Department of the Commonwealth Scientific and Industrial Research Organisation in Narrabri, NSW. To confirm that the insecticidal activity was due to the defensin and not to upregulation of other endogenous defense molecules, a feeding trial using artificial cotton leaf diet containing purified defensin from floral buds was performed. The 6 kDa cysteine rich proteinase inhibitors (NaPI) from N. alata (Atkinson et al., Plant Cell 5: 203-213, 1993) were used as positive control and casein was used as a negative control. Feeding trials were conducted as described in Heath et al. (J. Insect Physiology 43: 833-842, 1997 except that the artificial diet was based on cotton leaves (Table 2). Thirty milligram of defensin was purified from floral buds of N. alata and used in artificial diets at two concentrations. H. armigera larvae fed on defensin at 0.3% (w/v) were 40% smaller than controls (FIG. 16) while larvae fed on NaPI at the same concentration were about 60% smaller than controls.
substance,measurement,setting,value
"NaPdf1: Mature floral defensin (47 amino acids, ~5.3 kDa) from Nicotiana alata, purified from floral buds (RECKTESNTFPGICITKPPCRKACISEKFTDGHCSKILRRCLCTKPC; listed as Nicotiana alata)",growth inhibition of F. oxysporum f. sp. dianthi,[1],effectiveness
same,growth inhibition of B. cinerea,Botrytis cinerea,effectiveness
same,growth inhibition of F. oxysporum f. sp. vasinfectum,[2],effectiveness
same,larvae smaller than controls (mean weight),H. armigera larvae,40%
